From PubChem BioAssay (NCI)
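Growth conditions: 96-well plates. Treatment: test compound, 48 hours, 5 concentrations. Analysis: linear interpolation between bracketing concentrations; unreached endpoints set to highest concentration. GI50 is the concentration that inhibits growth by half. The concentration for full growth arrest is given as TGI.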 Where a SMILES comes first, the peptide text is derived from it. Bridges are numbered along the chain shown (N, C = ends). [ ]: non-standard residue; d: D form. aThr = C[C@H](O)[C@H](N)C(=O)O

Columns and labels:
Test in all cases: inhibition of tumour cell growth, NCI panel, 48 h; in the data active = GI50 below about 0.43 µM; inactive = the rest
HCT-116 colon = test system: HCT-116 colon
OVCAR-8 ovarian = test system: OVCAR-8 ovarian
LOX IMVI melanoma = test system: LOX IMVI melanoma
KM12 colon = test system: KM12 colon
HOP-62 NSCLC = test system: HOP-62 NSCLC
HOP-92 NSCLC = test system: HOP-92 NSCLC
786-0 renal = test system: 786-0 renal
BT-549 breast = test system: BT-549 breast
RPMI-8226 leukemia = test system: RPMI-8226 leukemia
IGROV1 ovarian = test system: IGROV1 ovarian

CC(C)C[C@@H]1NC(=O)[C@@H]2CCCN2C(=O)[C@@H]2CCCN2C(=O)[C@H](CC(C)C)NC(=O)[C@H](CO)NC(=O)[C@H](CCCCN)NC(=O)[C@H]([C@H](C)O)NC(=O)[C@@H]2CSSC[C@@H](NC1=O)C(=O)N[C@@H](Cc1ccccc1)C(=O)N1CCC[C@H]1C(=O)N[C@@H](CC(=O)O)C(=O)NCC(=O)N[C@@H](CCCN=C(N)N)C(=O)N2 (cyclo(C[aThr]KSLPPL[dC]FPDGR); disulfide 1-9)
> 50 µM: TGI (HCT-116 colon) | TGI (OVCAR-8 ovarian) | TGI (LOX IMVI melanoma) | TGI (KM12 colon) | TGI (HOP-62 NSCLC) | TGI (HOP-92 NSCLC) | TGI (786-0 renal) | TGI (BT-549 breast) | TGI (RPMI-8226 leukemia) | TGI (IGROV1 ovarian)
inactive: GI50 (HCT-116 colon) > 50 µM | GI50 (OVCAR-8 ovarian) > 50 µM | GI50 (LOX IMVI melanoma) > 50 µM | GI50 (KM12 colon) > 50 µM | GI50 (HOP-62 NSCLC) > 50 µM | GI50 (HOP-92 NSCLC) > 50 µM | GI50 (786-0 renal) > 50 µM | GI50 (BT-549 breast) > 50 µM | GI50 (RPMI-8226 leukemia) > 50 µM | GI50 (IGROV1 ovarian) > 46.4 µM

O=C1c2ccccc2C(=O)c2c(NC3CCCCC3)ccc(Nc3ccc(S(=O)(=O)O)cc3)c21
> 100 µM: TGI (HCT-116 colon) | TGI (OVCAR-8 ovarian) | TGI (LOX IMVI melanoma) | TGI (KM12 colon) | TGI (HOP-62 NSCLC) | TGI (HOP-92 NSCLC) | TGI (786-0 renal) | TGI (BT-549 breast) | TGI (RPMI-8226 leukemia) | TGI (IGROV1 ovarian)

CCCCCCCCCCCCCCNC(=O)Nc1ccc(Cl)c(Cl)c1
> 100 µM: TGI (LOX IMVI melanoma)
8.65 µM: TGI (HOP-92 NSCLC)
> 23.4 µM: TGI (786-0 renal)
> 23.3 µM: TGI (HCT-116 colon)
> 31.4 µM: TGI (OVCAR-8 ovarian)
6.16 µM: TGI (BT-549 breast)
inactive: GI50 (HCT-116 colon) 2.37 µM | GI50 (OVCAR-8 ovarian) 3.16 µM | GI50 (LOX IMVI melanoma) 3.23 µM | GI50 (KM12 colon) 3 µM | GI50 (HOP-62 NSCLC) 2.77 µM | GI50 (HOP-92 NSCLC) 2.75 µM | GI50 (786-0 renal) 2.79 µM | GI50 (BT-549 breast) 1.87 µM | GI50 (RPMI-8226 leukemia) 1.24 µM | GI50 (IGROV1 ovarian) 1.33 µM
3.26 µM: TGI (RPMI-8226 leukemia)
> 23.1 µM: TGI (HOP-62 NSCLC)
8.44 µM: TGI (KM12 colon)

C(=Nc1nc(SCc2ccccc2)nc2[nH]ncc12)c1cccs1
inactive: GI50 (OVCAR-8 ovarian) 39.6 µM | GI50 (LOX IMVI melanoma) 48.6 µM | GI50 (KM12 colon) 36.7 µM | GI50 (HOP-62 NSCLC) > 100 µM | GI50 (HOP-92 NSCLC) 10.7 µM | GI50 (786-0 renal) 79.7 µM | GI50 (BT-549 breast) 41 µM | GI50 (RPMI-8226 leukemia) 27.6 µM | GI50 (IGROV1 ovarian) > 100 µM
50 µM: TGI (HOP-92 NSCLC)
> 100 µM: TGI (OVCAR-8 ovarian) | TGI (LOX IMVI melanoma) | TGI (KM12 colon) | TGI (HOP-62 NSCLC) | TGI (786-0 renal) | TGI (BT-549 breast) | TGI (RPMI-8226 leukemia) | TGI (IGROV1 ovarian)

O=C(c1cccs1)c1c(C(F)(F)F)n([O-])c2cc(Cl)c(Cl)cc2[n+]1=O
2.85 µM: TGI (HOP-92 NSCLC)
2.52 µM: TGI (BT-549 breast)
1.91 µM: TGI (786-0 renal)
3.47 µM: TGI (OVCAR-8 ovarian)
1.08 µM: TGI (KM12 colon)
1.07 µM: TGI (IGROV1 ovarian)
inactive: GI50 (HCT-116 colon) 0.429 µM | GI50 (OVCAR-8 ovarian) 1.46 µM | GI50 (KM12 colon) 0.517 µM | GI50 (HOP-62 NSCLC) 1.77 µM | GI50 (HOP-92 NSCLC) 1.41 µM | GI50 (786-0 renal) 0.756 µM | GI50 (BT-549 breast) 0.975 µM
0.493 µM: TGI (LOX IMVI melanoma)
3.46 µM: TGI (HOP-62 NSCLC)
active: GI50 (LOX IMVI melanoma) 0.0703 µM | GI50 (IGROV1 ovarian) 0.073 µM
0.913 µM: TGI (HCT-116 colon)
